The values below come from US8513260B2, “Pyrazinylpyrazoles” (Bayer CropScience AG, priority 2009, dated 2013).

Data set [1] concerns green peach aphid (Myzus persicae). The data set is described as follows: Myzus test (MYZUPE spray treatment). It is filed as in vivo. The note with it: Chinese cabbage discs, after 6 days; for efficacy: 500 g/ha. The procedure: Myzus Test (MYZUPE Spray Treatment) Solvent: 78 parts by weight of acetone • • 1.5 parts by weight of dimethylformamide Emulsifier: 0.5 part by weight of alkylaryl polyglycol ether To prepare an appropriate active ingredient preparation, 1 part by weight of active ingredient is mixed with the stated amounts of solvent and emulsifier, and the concentrate is diluted with emulsifier-containing water to the desired concentration. Discs of Chinese cabbage (Brassica pekinensis) infested by all stages of the green peach aphid (Myzus persicae) are sprayed with an active ingredient preparation of the desired concentration. After 6 days, the efficacy in % is determined. 100% means that all of the aphids have been destroyed; 0% means that none of the aphids have been destroyed.

In data set [2] the test system is caterpillars of the armyworm (Spodoptera frugiperda). The data set is described as follows: Spodoptera frugiperda test (SPODFR spray treatment). It is filed as in vivo. The note with it: maize leaf discs, after 7 days; for efficacy: 500 g/ha; for pest or weed control at 500 g/ha: Spodoptera frugiperda, foliar, 168 h, read-out: efficacy. The gist of the method: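 Maize leaf discs sprayed with the compound at the desired concentration, formulated in acetone/dimethylformamide with alkylaryl polyglycol ether emulsifier and diluted in water, then infested with armyworm caterpillars after drying. Efficacy read after 7 days as % caterpillars killed (100% = all dead, 0% = none).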

Data set [3] has as its system larvae of the mustard beetle (Phaedon cochleariae). The data set is described as follows: Phaedon test (PHAECO spray treatment). It is filed as in vivo. The following applies: Chinese cabbage discs, after 7 days; for efficacy: 500 g/ha; for pest or weed control at 500 g/ha: Phaedon cochleariae, 168 h, read-out: efficacy. Summed up:
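Chinese cabbage leaf discs were sprayed with compound formulated in acetone/dimethylformamide with alkylaryl polyglycol ether emulsifier and diluted in emulsifier-containing water. After drying, discs were populated with mustard beetle larvae. Efficacy (% larvae killed; 100% = all dead) was scored after 7 days.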

The next data set concerns Boophilus microplus. The data set is described as follows: Boophilus microplus test (BOOPMI injection). The following applies: 20 μg animal, injection into the abdomen, after 7 days, laying of fertile eggs; for pest or weed control at 0.02 mg: Rhipicephalus microplus, 168 h, read-out: efficacy. It is filed as in vivo. The procedure:
Boophilus microplus Test (BOOPMI Injection) Solvent: dimethyl sulphoxide To prepare an appropriate active ingredient formulation, 10 mg of active ingredient are mixed with 0.5 ml of solvent and the concentrate is diluted with solvent to the desired concentration. The active ingredient solution is injected into the abdomen (Boophilus microplus), and the animals are transferred into dishes and stored in a climate-controlled room. The efficacy is assessed by laying of fertile eggs. After 7 days, the efficacy in % is determined. 100% means that none of the ticks has laid any fertile eggs.

In data set [4] the test system is unfed adult fleas (Ctenocephalides felis). The data set is described as follows: Ctenocephalides felis test (CTECFE). The note with it: 100 ppm in citrated cow's blood, after 2 days; for pest or weed control at 100 ppm: Ctenocephalides felis, 48 h, read-out: efficacy (kill). It is filed as in vivo. The protocol: Ctenocephalides felis Test ([…]) Solvent: 1 part by weight of dimethyl sulphoxide For the purpose of preparing an appropriate active ingredient formulation, 10 mg of active ingredient are mixed with 0.5 ml of dimethyl sulphoxide. A portion of the concentrate is diluted with citrated cow's blood and the desired concentration is established. About 20 unfed adult fleas (Ctenocephalides felis) are introduced into a chamber closed at the top and bottom with gauze. A metal cylinder, the bottom of which is closed with Parafilm, is placed onto the chamber. The cylinder contains the blood/active ingredient preparation, which can be imbibed by the fleas through the Parafilm membrane. After 2 days, the kill in % is determined. 100% means that all fleas have been killed; 0% means that none of the fleas have been killed.

In a further data set the test system is adult Musca domestica. The data set is described as follows: Musca domestica test. The following applies: after 2 days. It is filed as in vivo. The procedure: Musca domestica Test Solvent: dimethyl sulphoxide To prepare an appropriate active ingredient formulation, 10 mg of active ingredient are mixed with 0.5 ml of dimethyl sulphoxide and the concentrate is diluted with water to the desired concentration. Vessels containing a sponge treated with the active ingredient preparation of the desired concentration are populated with adult Musca domestica. After 2 days, the kill in % is determined. 100% means that all of the flies have been killed; 0% means that none of the flies have been killed.

Data set [5] relates to red spider mite (Tetranychus urticae). The data set is described as follows: Tetranychus test, OP-resistant (TETRUR spray treatment). It is filed as in vivo. The note with it: bean leaf discs, after 6 days; for pest or weed control at 500 g/ha: Tetranychus urticae, foliar, 144 h, read-out: efficacy. Summed up:
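Bean leaf discs (Phaseolus vulgaris) infested with all mite stages were sprayed with active ingredient diluted in emulsifier-containing water at the desired concentration. Mortality read after 6 days as % efficacy, where 100% = all mites killed and 0% = none killed.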

Data set [6] concerns adult engorged Boophilus microplus females of the SP-resistant Parkhurst strain. The data set is described as follows: Boophilus microplus (dip). It is filed as in vivo. The note with it: after 7 days, laying of fertile eggs; for efficacy: 100 ppm; for pest or weed control at 100 ppm: Rhipicephalus microplus, 168 h, read-out: efficacy. The protocol:
Boophilus microplus (dip)
Test animals: adult engorged Boophilus microplus females of the SP-resistant Parkhurst strain
Solvent: dimethyl sulphoxide
10 mg of active ingredient are dissolved in 0.5 ml of dimethyl sulphoxide. For the purpose of preparing a suitable formulation, the active ingredient solution is diluted with water to the concentration desired in each case. This active ingredient preparation is pipetted into tubes. 8-10 ticks are transferred into a further tube with holes. The tube is immersed into the active ingredient formulation, and all ticks are completely wetted. After the liquid has run out, the ticks are transferred onto filter discs in plastic dishes and stored in a climate-controlled room. The activity is assessed after 7 days by laying of fertile eggs. Eggs whose fertility is not outwardly visible are stored in glass tubes in a climate-controlled cabinet until the larvae hatch. Efficacy of 100% means that none of the ticks has laid any fertile eggs.

Another data set concerns Lucilia cuprina larvae. The data set is described as follows: Lucilia cuprina test (LUCICU). It is filed as in vivo. The note with it: 48 h, treated horse meat, after 2 days, read-out: efficacy (kill). The procedure: Lucilia cuprina Test (LUCICU) Solvent: dimethyl sulphoxide To prepare an appropriate active ingredient formulation, 10 mg of active ingredient are mixed with 0.5 ml of dimethyl sulphoxide and the concentrate is diluted with water to the desired concentration. Vessels containing horse meat treated with the active ingredient preparation of the desired concentration are populated with about 20 Lucilia cuprina larvae. After 2 days, the kill in % is determined. 100% means that all of the larvae have been killed; 0% means that none of the larvae have been killed.

Data set [7] is described as follows: logP by HPLC on reversed-phase columns (C 18), EEC Directive 79/831 Annex V.A8. It is filed as physicochemical. The following applies: reversed-phase C18 HPLC column, read-out: log P. An excerpt:
[table] The calibration is effected with unbranched alkan-2-ones (having 3 to 16 carbon atoms) with known logP values (logP values determined on the basis of the retention times by linear interpolation between two successive alkanones).

Setting [8] is: pH 2.7, * LC-MS, acidic range pH 2.7, 0.1% aqueous formic acid and acetonitrile.

Each structure is given as a SMILES string. Where two headings read alike, the source gives them in different places.

As to `COc1nccnc1-n1nc(C(F)(F)C(F)(F)F)c(-c2cc(Cl)cc(C(F)(F)F)c2)c1N` [Ex. 15], the efficacy (in [1]; in data set [2]; in [3]; with Boophilus microplus; in data set [5] (500 g/ha); in data set [6]) was 100% in each case. For the same compound, the “efficacy (kill)” value (in [4]; in the data set on adult Musca domestica (100 ppm)) was 95% throughout.
With `COc1nccnc1-n1nc(C(F)(F)Cl)c(-c2cc(Cl)cc(C(F)(F)F)c2)c1N` [Ex. 17], the efficacy (in data set [1]; in data set [2]; in data set [3]; with Boophilus microplus; in [5] (500 g/ha); in data set [6]) was 100% throughout. Further, the “efficacy (kill)” value (in data set [4]; in the data set on adult Musca domestica (100 ppm)) was 100% in each case.
As to `COc1nccnc1-n1nc(C(F)(F)F)c(-c2cc(I)c3c(c2)OCO3)c1N` [Ex. 139], the pest or weed control at 500 g/ha was determined as 100% in data set [2], 100% in [3] and 80% in [5] (500 g/ha). Further, the pest or weed control at 100 ppm (with Lucilia cuprina larvae; in [4]) was 100% each time. The chromatographic logP in [7] (setting [8]) amounted to 3.27. Also, the pest or weed control at 0.02 mg in the data set with Boophilus microplus was determined as 100%.
`COc1cc(-c2c(C(F)(F)F)nn(-c3nccnc3OC)c2N)cc(Cl)c1OC` [Ex. 141]: the pest or weed control at 500 g/ha in data set [2], in data set [3] and in data set [5] (500 g/ha) was 100% throughout. For the same compound, the pest or weed control at 100 ppm (with Lucilia cuprina larvae; in data set [4]) was 100% throughout. Further, the chromatographic logP in data set [7] (setting [8]) came to 3.22. Also, the pest or weed control at 0.02 mg in the data set with Boophilus microplus came to 100%. In the data set with adult Musca domestica (20 ppm), the “efficacy (kill)” value is on record as 80%.
Regarding `CCOc1nccnc1-n1nc(C(F)(F)F)c(-c2ccc(Br)cc2)c1N` [Ex. 5], the pest or weed control at 100 ppm (with Lucilia cuprina larvae; in data set [6]) was 100% throughout. Besides, in [7] (pH 2.3, ** acidic range pH 2.3, 0.1% aqueous phosphoric acid and acetonitrile), the chromatographic logP stood at 3.6. Moreover, the pest or weed control at 500 g/ha stood at 100% in data set [3] and 80% in data set [5] (500 g/ha). Moreover, in the data set with Boophilus microplus, the pest or weed control at 0.02 mg amounted to 100%. Moreover, the “efficacy (kill)” value in the data set on adult Musca domestica (100 ppm) amounted to 80%.
On to `COc1nccnc1-n1nc(C(F)(F)F)c(-c2cc(Cl)c3c(c2)OCCO3)c1N` [Ex. 133], for which the efficacy is recorded as 100% in data set [2]; 100% in [3]; 100% with Boophilus microplus; 90% in [5] (100 g/ha); 95% in [6]. Further, the “efficacy (kill)” value was determined as 100% in data set [4] and 80% in the data set with adult Musca domestica (20 ppm).
Consider `C=Cc1nn(-c2nccnc2OC)c(N)c1-c1cc(Cl)cc(Cl)c1` [Ex. 8], for which the efficacy in data set [1] worked out at 100%; in the data set with Boophilus microplus, 100%; in data set [6], 90%.
Take `COc1nccnc1-n1nc(C(F)(F)F)c(-c2ccc(Cl)c(C(F)(F)F)c2)c1N` [Ex. 18]: the efficacy in data set [1] worked out at 90%; in [2], 83%; in data set [3], 100%; with Boophilus microplus it was 100%; in data set [5] (500 g/ha) it was 100%; in data set [6], 100%.
Turning to `COc1nccnc1-n1nc(C(F)(F)F)c(-c2cc(Br)c3c(c2)OCCO3)c1N` [Ex. 132], the efficacy in [2] was 100%; in [3], 100%; in the data set with Boophilus microplus, 100%; in data set [5] (500 g/ha) it was 80%; in [6] it was 100%. Also, the “efficacy (kill)” value is 100% in data set [4] and 80% with adult Musca domestica (100 ppm).
With `COc1nccnc1-n1nc(C(F)(F)C(F)(F)OC)c(-c2cc(Cl)cc(C(F)(F)F)c2)c1N` [Ex. 47], the efficacy worked out at 80% in data set [1]; 100% in data set [2]; 100% in data set [3]; 100% in the data set on Boophilus microplus; 100% in data set [5] (500 g/ha); 100% in [6]. The “efficacy (kill)” value is reported as 100% in data set [4] and 80% in the data set on adult Musca domestica (100 ppm).
Consider `COc1nccnc1-n1nc(C(C)(F)F)c(-c2ccc(Cl)c(C(F)(F)F)c2)c1N` [Ex. 20], for which the efficacy (in data set [1]; in data set [2]; in data set [3]; with Boophilus microplus; in [5] (500 g/ha); in data set [6]) was 100% each time.
Turning to `COc1cc(-c2c(C(F)(F)C(F)(F)F)nn(-c3nccnc3OC)c2N)cc(Cl)c1OC` [Ex. 51], the values for the pest or weed control at 500 g/ha in data set [2], in [3] and in data set [5] (500 g/ha) were 100%, 100% and 80%, respectively. Also, the pest or weed control at 100 ppm (in the data set on Lucilia cuprina larvae; in data set [4]; in [6]) was 100% in each case. The chromatographic logP in [7] (setting [8]) came to 3.8. Also, the pest or weed control at 0.02 mg in the data set on Boophilus microplus is 100%.
Take `COc1nccnc1-n1nc(C(F)(F)F)c(-c2cc(Br)cc(Br)c2)c1N` [Ex. 22]: the pest or weed control at 500 g/ha in [1] (Myzus persicae, 144 h, read-out: efficacy) is 100%; in [2] it was 100%; in data set [3], 100%; in data set [5] (500 g/ha) it was 100%. The pest or weed control at 100 ppm is 100% in the data set with Lucilia cuprina larvae, 95% in [4] and 95% in data set [6]. Further, the chromatographic logP in data set [7] (setting [8]) was 4.1. The pest or weed control at 0.02 mg in the data set with Boophilus microplus was 100%.
